The source of these data is US6218393A, “Anthranilic acid derivatives as multi drug resistance modulators” (priority 1997, dated 2001).

The subject of data set [1] is AR 1.0 cells. Description: Drug accumulation assay: daunorubicin accumulation in AR 1.0 cells. The class given is cell-based. The following applies: Mus musculus, 100% = accumulation with verapamil 100 μM, 1 hr, 37° C. Summed up: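 AR 1.0 is the MDR-resistant subline of EMT6 mouse mammary carcinoma, grown in RPMI 1640 with 10% foetal calf serum and 2 mM glutamine at 37 °C, 5% CO2. Cells were seeded 48 h before the daunorubicin accumulation assay.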

The subject of data set [2] is AR 1.0 cells. Description: Potentiation of doxorubicin toxicity: proliferation assay (sulphorhodamine B). The class given is cell-based, mouse. From the text:
(a) Selected compounds of formula (I) were examined for their ability to potentiate the toxicity of doxorubicin in AR 1.0 cells.

Data set [3] relates to AR 1.0 cells. Description: Potentiation index with doxorubicin titration. The class given is cell-based, mouse. The following applies: for Potentiation Index at RMA concentration 10 nM: Table C1, RMA 10 nM; for Potentiation Index at RMA concentration 30 nM: Table C1, RMA 30 nM; for Potentiation Index at RMA concentration 50 nM: Table C1, RMA 50 nM; for Potentiation Index at RMA concentration 100 nM: Table C1, RMA 100 nM. Here is the method:
The EMT6 mouse mammary carcinoma cell line and the MDR resistant subline AR 1.0 were cultured in RPMI 1640 medium containing 10% foetal calf serum and 2 mM glutamine at 37° C. in 5% CO2. Cells were passaged between 1 in 200 and 1 in 2000 in the case of the parental cell line and between 1 in 20 and 1 in 200 in the case of the MDR resistant subline, after trypsinisation (0.25% trypsin, 0.2 gl^-1, EDTA). […]
(b) Cells were cultured for four days with a titration of doxorubicin (0.263 nM-17.24 μM) in the presence of a fixed concentration of each compound. Proliferation was quantified as described by Skehen et al, loc cit. The IC50 (concentration required to reduce proliferation to 50% of the untreated controls) for doxorubicin alone and with each compound were derived and used to calculate the potentiation index (PI): [formula]

The mark [4] stands for this setting: Mus musculus, 96 h, compound alone, four day proliferation, read-out: Compound Toxicity (IC50).
The mark [5] stands for this setting: with fixed doxorubicin 0.34 μm, four days, 5760 min, read-out: Toxicity with Cytotoxic Agent (IC50).

Broadly, the IC50 is the concentration needed to halve the response being measured.

Regarding `COc1cc2c(cc1OC)CN(CCNC(=O)c1ccccc1NC(=O)c1ccc([N+](=O)[O-])cc1)CC2` [compound 9381, 2-(4-Nitro-benzoylamino)-N-[2-(6,7-dimethoxy-3,4-dihydro-1H-isoquinolin-2-yl)-ethyl]-benzamide], the IC50 came to 3000 nM with AR 1.0 cells [1], 50000 nM in the data set with AR 1.0 cells [2] (setting [4]) and 1500 nM in the data set on AR 1.0 cells [2] (setting [5]).

For `COc1cc2c(cc1OC)CN(CCNC(=O)c1ccccc1NC(=O)c1ccc(C(C)(C)C)cc1)CC2` [compound 9334, 2-(4-tert-Butyl-benzoylamino)-N-[2-(6,7-dimethoxy-3,4-dihydro-1H-isoquinolin-2-yl)-ethyl]-benzamide], the IC50 in the data set with AR 1.0 cells [1] was found to be 1300 nM; with AR 1.0 cells [2] (setting [4]) it was 8000 nM; in the data set with AR 1.0 cells [2] (setting [5]), 50 nM.

For the compound `COc1cc2c(cc1OC)CN(CCNC(=O)c1ccccc1NC(=O)c1ccc(Br)cc1)CC2` [compound 9380, 2-(4-Bromo-benzoylamino)-N-[2-(6,7-dimethoxy-3,4-dihydro-1H-isoquinolin-2-yl)-ethyl]-benzamide], the IC50 was found to be 900 nM in the data set on AR 1.0 cells [1], 40000 nM in the data set on AR 1.0 cells [2] (setting [4]) and 500 nM with AR 1.0 cells [2] (setting [5]).

Regarding `COc1cc2c(cc1OC)CN(CCNC(=O)c1ccc(N)cc1NC(=O)c1ccc(C(C)C)cc1)CC2` [compound 9435, 2-(4-Isopropyl-benzoylamino)-N-[2-(6,7-dimethoxy-3,4-dihydro-1H-isoquinolin-2-yl)-ethyl]-4-amino-benzamide], the IC50 with AR 1.0 cells [1] is 1900 nM; with AR 1.0 cells [2] (setting [4]), 9000 nM; in the data set with AR 1.0 cells [2] (setting [5]) it was 400 nM.

Regarding `COc1cc2c(cc1OC)CN(CCc1ccc(NC(=O)c3ccccc3NC(=O)c3ccccc3OC(C)=O)cc1)CC2` [compound 9534, Acetic acid 2-(2-{4-[2-(6,7-dimethoxy-3,4-dihydro-1H-isoquinolin-2-yl)-ethyl]-phenylcarbamoyl}-phenylcarbamoyl)-phenyl ester], the IC50 in the data set with AR 1.0 cells [1] was found to be 140 nM; in the data set on AR 1.0 cells [2] (setting [4]) it was 6600 nM; in the data set with AR 1.0 cells [2] (setting [5]), 0.2 nM.

`COc1cc2c(cc1OC)CN(CCNC(=O)c1ccccc1NC(=O)c1ccc3ccccc3n1)CC2` [compound 9385, Quinoline-2-carboxylic acid {2-[2-(6,7-dimethoxy-3,4-dihydro-1H-isoquinolin-2-yl)-ethylcarbamoyl]-phenyl}-amide]: the IC50 in the data set on AR 1.0 cells [1] was 1200 nM; in the data set on AR 1.0 cells [2] (setting [4]), 40000 nM.

For `COc1cc2c(cc1OC)CN(CCNC(=O)c1ccccc1NC(=O)c1cc3ccccc3[nH]1)CC2` [compound 9367], the half-inhibitory concentration (IC50) in the data set with AR 1.0 cells [1] is 1000 nM; with AR 1.0 cells [2] (setting [4]), 15000 nM; in the data set on AR 1.0 cells [2] (setting [5]), 500 nM.

Take `COc1cc2c(cc1OC)CN(CCc1ccc(NC(=O)c3ccccc3NC(=O)c3ccc4ccccc4n3)cc1)CC2` [compound 9545, Quinoline-2-carboxylic acid (2-{4.-[2-(6,7-dimethoxy-3,4-dihydro-1H-isoquinolin-2-yl)-ethyl]-phenylcarbamoyl}-phenyl)-amide]: the IC50 with AR 1.0 cells [1] turned out to be 800 nM; with AR 1.0 cells [2] (setting [4]), 1700 nM.

Turning to `COc1cccc2c1C(=O)c1c(O)c3c(c(O)c1C2=O)C[C@@](O)(C(=O)CO)C[C@@H]3O[C@H]1C[C@H](N)[C@H](O)[C@H](C)O1` [doxorubicin, reference compound], in the data set on AR 1.0 cells [2] (fixed concentration 0.34 μm), the “toxicity of doxorubicin alone to AR 1.0 cells” value is recorded as “non-toxic”.

As to `CCCCOc1ccc(CN(C)CCc2ccc(NC(=O)c3ccccc3NC(=O)c3cnc4ccccc4c3)cc2)cc1OC` [compound 9642, Quinoline-3-carboxylic acid [2-(4-{2-[(4-butoxy-3-methoxy-benzyl)-methyl-amino]-ethyl}-phenylcarbamoyl)-phenyl]-amide], in the data set with AR 1.0 cells [1], the IC50 stood at 341 nM. In addition, in the data set with AR 1.0 cells [3], the “Potentiation Index at RMA concentration 10 nM” value worked out at 1.0, the “Potentiation Index at RMA concentration 30 nM” value turned out to be 1.2, the “Potentiation Index at RMA concentration 50 nM” value came out at 2.5 and the “Potentiation Index at RMA concentration 100 nM” value stood at 14.

`COc1cc2c(cc1OC)CN(CCCc1cccc(NC(=O)c3ccccc3NC(=O)c3cnc4ccccc4c3)c1)CC2` [compound 9660, Quinoline-3-carboxylic acid (2-{3-[3-(6,7-dimethoxy-31 4-dihydro-1H-isoquinolin-2-yi)-propyl]-phenyicarbamoyi}-phenyi)-atnide] came in with an IC50 with AR 1.0 cells [1] of 6420 nM. Moreover, in the data set with AR 1.0 cells [3], the “Potentiation Index at RMA concentration 30 nM” value was found to be 1.1, the “Potentiation Index at RMA concentration 50 nM” value is reported as 1.2 and the “Potentiation Index at RMA concentration 100 nM” value turned out to be 1.4.

The compound `COc1ccc(CN(C)Cc2ccc(NC(=O)c3ccccc3NC(=O)c3cnc4ccccc4c3)cc2)cc1OC(C)C` [compound 9652, Quinoline-3-carboxylic acid [2-(4-{[(3-isopropoxy-4-methoxy-benzyl)-methyl-amino]-methyl}-phenylcarbamoyl)-phenyl]-amide] returned an IC50 with AR 1.0 cells [1] of 64 nM. Further, in the data set with AR 1.0 cells [3], the “Potentiation Index at RMA concentration 30 nM” value amounted to 1.2, the “Potentiation Index at RMA concentration 50 nM” value amounted to 1.8 and the “Potentiation Index at RMA concentration 100 nM” value is listed as 7.6.

`CN(CCc1ccc(NC(=O)c2ccccc2NC(=O)c2cnc3ccccc3c2)cc1)Cc1ccc2c(c1)OCCO2` [compound 9645, Quinoline-3-carboxylic acid [2-(4-{2-[(2,3-dihydro-benzo [1,4]dioxin-6-ylmethyl)-methyl-amino]-ethyl}-phenylcarbamoyl)-phenyl]-amide] yielded an IC50 in the data set with AR 1.0 cells [1] of 179 nM. In the data set with AR 1.0 cells [3], the “Potentiation Index at RMA concentration 10 nM” value is 1.0, the “Potentiation Index at RMA concentration 30 nM” value amounted to 1.3, the “Potentiation Index at RMA concentration 50 nM” value amounted to 2.1 and the “Potentiation Index at RMA concentration 100 nM” value was 7.2.

The compound `COc1cc2c(cc1OC)CN(CCc1ccc(NC(=O)c3nccnc3NC(=O)c3cnc4ccccc4c3)cc1)CC2` [compound 9622, Quinoline-3-carboxylic acid (3-{4-[2-(6,7-dimethoxy-3,4-dihydro-1H-isoquinolin-2-yl)-ethyl]-phenylcarbamoyl}-pyrazin-2-yl)-amide] had a half-maximal inhibitory concentration (IC50) in the data set with AR 1.0 cells [1] of 207 nM. In the data set on AR 1.0 cells [3], the “Potentiation Index at RMA concentration 10 nM” value is 1.8, the “Potentiation Index at RMA concentration 30 nM” value turned out to be 15, the “Potentiation Index at RMA concentration 50 nM” value was 46 and the “Potentiation Index at RMA concentration 100 nM” value was 79. In the data set with AR 1.0 cells [3] (Table C1, RMA 20 nM), the “Potentiation Index at RMA concentration 20 nM” value is listed as 8.

In the data set on AR 1.0 cells [1], `COc1cc2c(cc1OC)CN(CCc1ccc(NC(=O)c3ccccc3NC(=O)c3cnc4ccccc4c3)c(C)c1)CC2` [compound 9650, Quinoline-3-carboxylic acid (2-{4-[2-(6,7-dimethoxy-3,4-dihydro-1H-isoquinolin-2-yl)-ethyl]-2-methyl-phenylcarbamoyl}-phenyl)-amide] had an IC50 of 61 nM. Moreover, in the data set with AR 1.0 cells [3], the “Potentiation Index at RMA concentration 10 nM” value was 3, the “Potentiation Index at RMA concentration 30 nM” value was determined as 3, the “Potentiation Index at RMA concentration 50 nM” value is on record as 14 and the “Potentiation Index at RMA concentration 100 nM” value stood at 33.

With `CN(CCc1ccc(NC(=O)c2ccccc2NC(=O)c2cnc3ccccc3c2)cc1)Cc1ccc(F)c(F)c1` [compound 9643, Quinoline-3-carboxylic acid [2-(4-{2-[(3,4-difluoro-benzyl)-methyl-amino]-ethyl}-phenylcarbamoyl)-phenyl]-amide], the IC50 in the data set with AR 1.0 cells [1] was determined as 425 nM. Moreover, in the data set with AR 1.0 cells [3], the “Potentiation Index at RMA concentration 10 nM” value was found to be 1.0, the “Potentiation Index at RMA concentration 30 nM” value amounted to 1.5, the “Potentiation Index at RMA concentration 50 nM” value was determined as 2.4 and the “Potentiation Index at RMA concentration 100 nM” value was 6.7.

Compound `COc1ccc(CN(C)Cc2ccc(NC(=O)c3ccccc3NC(=O)c3cccnc3)cc2)cc1OC(C)C` [compound 9661, N-[2-(4-{[(3-Isopropoxy-4-methoxy-benzyl)-methyl-amino]-methyl}-phenylcarbamoyl)-phenyl]-nicotinamide] yielded an IC50 in the data set on AR 1.0 cells [1] of 362 nM. Besides, in the data set on AR 1.0 cells [3], the “Potentiation Index at RMA concentration 10 nM” value stood at 1.2, the “Potentiation Index at RMA concentration 30 nM” value is on record as 38, the “Potentiation Index at RMA concentration 50 nM” value is given as 71 and the “Potentiation Index at RMA concentration 100 nM” value came out at 195.

Turning to `COc1cc(CN(C)CCc2ccc(NC(=O)c3ccccc3NC(=O)c3cnc4ccccc4c3)cc2)ccc1OC(C)C` [compound 9646, Quinoline-3-carboxylic acid [2-(4-{2-[(4-isopropoxy-3-methoxy-benzyl)-methyl-amino]-ethyl}-phenylcarbamoyl)-phenyl]-amide], inhibition in the data set on AR 1.0 cells [1] was half-maximal at 295 nM (IC50). Moreover, in the data set on AR 1.0 cells [3], the “Potentiation Index at RMA concentration 10 nM” value was determined as 1.0, the “Potentiation Index at RMA concentration 30 nM” value was 1.1, the “Potentiation Index at RMA concentration 50 nM” value was 1.3 and the “Potentiation Index at RMA concentration 100 nM” value came to 4.8.

In turn, `COc1cc2c(cc1OC)CN(CCNC(=O)c1ccccc1NC(=O)c1ccc(-c3ccccc3)cc1)CC2` [compound 9294, Biphenyl-4-carboxylic acid {2-[2-(6,7-dimethoxy-3,4-dihydro-1H-isoquinolin-2-yl)-ethylcarbamoyl]-phenyl}-amide] returned an IC50 in the data set on AR 1.0 cells [1] of 400 nM. Further, in the data set with AR 1.0 cells [3] (Table C2, RMA 300 nM), the “Potentiation Index at RMA concentration 300 nM” value was 18. Moreover, in the data set with AR 1.0 cells [3] (Table C2, RMA 500 nM), the “Potentiation Index at RMA concentration 500 nM” value is 71.
